According to patent publication US12707555B2, “Low-temperature dielectric barrier discharge devices” (The Trustees of Princeton University, priority 2022, dated 2026):

Key:
E. coli 10-beta = test: Quantitative disinfection of bacteria dried on glass coverslips (CFU count, log reduction); assay type: cell-based; settings: 3% H2O2 alone, flex-DBD off; R=0.97
Procedure: (§1) To quantify disinfection, bacteria (E. coli 10-beta, Standard E. coli AMS 198 or OP50-GFP) were inoculated on glass coverslips (25 mm diameter). Four droplets of 5 μl each (20 μl) of the bacterial culture (starting concentration 10^8 CFU/ml) were placed onto each coverslip and allowed to dry for approximately 40 min. The slides with dry bacterial culture were then placed onto the flex-DBD with the inoculated side directly in contact with the discharge. The coverslips were treated for 10, 30, 90, and 270 s. At the end of the treatment time, the treated coverslip was placed in a centrifuge tube with 7.5 ml LB, enough to cover the coverslip. The tubes were vortexed on a medium setting for 20 s to recover the bacteria from the treated surface but not damage the cell membrane. The resulting bacterial suspension was spread on LB-agar plates and incubated for 24 h. Cultures were then counted and the number used to calculate the logarithmic reductions of bacterial concentration. […] Pieces of material were disinfected by soaking for 5 min in a 70% solution of isopropyl alcohol then dried thoroughly for at least 30 min. […] An inoculated glass coverslip was placed on top of the solution with the bacteria in contact with the solution. […] Statistical significance between pairs of treatments was evaluated using repeated measures ANOVA.

[1] = system: E. coli AMS 198 (ATCC-11229); test: as above; assay type: cell-based; settings: 3% H2O2 alone, flex-DBD off; R=0.947
Procedure: as §1

E. coli = test: Disinfection of inoculated coverslips with flex-DBD in conjunction with 3% H2O2 solution (strain not stated at the result); assay type: cell-based; settings: H2O2 with only UV radiation from flex-DBD (UV filter); after the first 30 s
Procedure: Pieces of material were disinfected by soaking for 5 min in a 70% solution of isopropyl alcohol then dried thoroughly for at least 30 min. […] An inoculated glass coverslip was placed on top of the solution with the bacteria in contact with the solution. At the end of each treatment, the coverslip and the cloth were dropped into a centrifuge tube with 7.5 ml of LB solution. The same recovery and plating procedure was used in all experiments. […] To block all the output from the plasma except light, a thin film filter transparent down to 190 nm was placed between the DBD and H2O2. […] When possible, ImageJ (1.53c) software was used to count CFUs, otherwise the counting was done visually. […] All the experiments were performed in triplicates of samples and plates. Statistical significance between pairs of treatments was evaluated using repeated measures ANOVA.

bacterial load = settings: cited from earlier work

For `OO` [H2O2, hydrogen peroxide], the “time for 1 log10 reduction, D” value (E. coli 10-beta) was 139±5 s, the “time for 1 log10 reduction, D” value [1] was 135±5 s and the “time for 1 log10 reduction, D” value (E. coli) was > 250 s. For the same compound, the reduction (bacterial load; H2O2 droplets added into a corona discharge) was 6 log10 and the “reduction in the bacterial load” value (bacterial load; H2O2 vapor added to the plasma effluent) was “greater than 6 log10”.
